Data from US8609666B2, “2-morpholino-pyrido[3,2-D]pyrimidines” (Merck Serono SA, priority 2009, dated 2013).

Tested on: Human recombinant GST-PI3K
Assay: PI3K induced-lipid phosphorylation scintillation proximity assay (neomycin-coated SPA beads)
Assay type: biochemical
Settings: amount necessary to achieve 50% inhibition of PI3K; 120 min at room temperature
Description: The efficacy of compounds of the invention in inhibiting the PI3K induced-lipid phosphorylation may be tested in the following binding assay. The assay combines the scintillation proximity assay technology (SPA, Amersham) with the capacity of neomycin (a polycationic antibiotic) to bind phospholipids with high affinity and specificity. The Scintillation Proximity Assay is based on the properties of weakly emitting isotopes (such as ^3H, ^125I, ^33P). Coating SPA beads with neomycin allows the detection of phosphorylated lipid substrates after incubation with recombinant PI3K and radioactive ATP in the same well, by capturing the radioactive phospholipids to the SPA beads through their specific binding to neomycin. To a 96 wells MTP containing 10 μl of the test compound of Formula (I) (solubilized in 10% DMSO; to yield a concentration of 100, 25, 5.0, 1.25, 0.312, 0.078, 0.0195, 0.00488, 0.00122 and 0.0003 μM of the test compound), the following assay components are added: 1) 10 μL of lipid micelles 2) […] of Kinase buffer ([^33P]γATP162 μM/300 nCi, MgCl2 2.5 mM, DTT 2.5 mM, Na3VO4 25 μM in Hepes 40 mM, pH 7.4) and 3) 10 μL (100 ng) of Human recombinant GST-PI3K (in Hepes 40 mM, pH 7.4, ethylenglycol 4%). After incubation at room temperature for 120 minutes, with gentle agitation, the reaction is stopped by addition of 200 μL of a solution containing 250 μg of neomycin-coated PVT SPA beads, ATP 60 mM and EDTA 6.2 mM in PBS. The assay is further incubated at room temperature for 60 minutes with gentle agitation to allow binding of phospholipids to neomycin-SPA beads. After precipitation of the neomycin-coated PVT SPA beads for 5 minutes at 1500×g, radioactive PtdIns(3)P is quantified by scintillation counting in a Wallac MicroBeta™ plate counter. The values indicated in Table I below refer to the IC50 (μM) with respect to PI3K, i.e. the amount necessary to achieve 50% inhibition of said target. Said values show a considerable inhibitory potency of pyridopyrimidine compounds with regard to PI3K.

Structure (SMILES)	IC50 [nM]
COc1cccc(-c2nc(N3CCOCC3)nc3c(Cl)cc(C(=O)O)nc23)c1 [Example 1, 8-Chloro-4-(3-methoxyphenyl)-2-morpholin-4-ylpyrido[3,2-d]pyrimidine-6-carboxylic acid]	1080
COc1cccc(-c2nc(N3CCOCC3)nc3ccc(C(=O)O)nc23)c1 [Example 2, 4-(3-Methoxyphenyl)-2-morpholin-4-ylpyrido[3,2-d]pyrimidine-6-carboxylic acid]	4490
COCCN(C)c1cc(C(=O)O)nc2c(-c3ccc(O)cc3)nc(N3CCOCC3)nc12 [Example 3, 4-(4-hydroxy-phenyl)-8-[(2-methoxy-ethyl)-methyl-amino]-2-morpholin-4-yl-pyrido[3,2-d]pyrimidine-6-carboxylic acid]	290
CN(C)c1cc(C(=O)O)nc2c(-c3ccc(O)cc3)nc(N3CCOCC3)nc12 [Example 4, 8-Dimethylamino-4-(4-hydroxy-phenyl)-2-morpholin-4-yl-pyrido[3,2-d]pyrimidine-6-carboxylic acid]	350
COCCNc1cc(C(=O)O)nc2c(-c3ccc(O)cc3)nc(N3CCOCC3)nc12 [Example 5, 4-(4-Hydroxy-phenyl)-8-(2-methoxy-ethylamino)-2-morpholin-4-yl-pyrido[3,2-d]pyrimidine-6-carboxylic acid]	504
COCCOc1cc(C(=O)O)nc2c(-c3ccc(O)cc3)nc(N3CCOCC3)nc12 [Example 6, 4-(4-Hydroxy-phenyl)-8-(2-methoxy-ethoxy)-2-morpholin-4-yl-pyrido[3,2-d]pyrimidine-6-carboxylic acid]	2520
O=C(O)c1cc(NCCO)c2nc(N3CCOCC3)nc(-c3ccc(O)cc3)c2n1 [Example 7, 8-(2-Hydroxy-ethylamino)-4-(4-hydroxy-phenyl)-2-morpholin-4-yl-pyrido[3,2-d]pyrimidine-6-carboxylic acid]	732
O=C(O)c1ccc2nc(N3CCOCC3)nc(-c3ccc(O)cc3)c2n1 [Example 8, 4-(4-Hydroxy-phenyl)-2-morpholin-4-yl-pyrido[3,2-d]pyrimidine-6-carboxylic acid]	855
O=C(O)c1cc(Cl)c2nc(N3CCOCC3)nc(-c3cccc(O)c3)c2n1 [Example 9, 8-Chloro-4-(3-hydroxyphenyl)-2-morpholin-4-ylpyrido[3,2-d]pyrimidine-6-carboxylic acid]	108
COCCN(C)c1cc(C(=O)O)nc2c(-c3cccc(O)c3)nc(N3CCOCC3)nc12 [Example 10, 4-(3-Hydroxy-phenyl)-8-[(2-methoxy-ethyl)-methyl-amino]-2-morpholin-4-yl-pyrido[3,2-d]pyrimidine-6-carboxylic acid]	28
COCCOc1cc(C(=O)O)nc2c(-c3cccc(O)c3)nc(N3CCOCC3)nc12 [Example 11, 4-(3-Hydroxy-phenyl)-8-(2-methoxy-ethoxy)-2-morpholin-4-yl-pyrido[3,2-d]pyrimidine-6-carboxylic acid]	255
O=C(O)c1cc(NCCO)c2nc(N3CCOCC3)nc(-c3cccc(O)c3)c2n1 [Example 12, 8-(2-Hydroxy-ethylamino)-4-(3-hydroxy-phenyl)-2-morpholin-4-yl-pyrido[3,2-d]pyrimidine-6-carboxylic acid]	75
COc1ccccc1-c1cc(C(=O)O)nc2c(-c3cccc(O)c3)nc(N3CCOCC3)nc12 [Example 13, 4-(3-hydroxyphenyl)-8-(2-methoxyphenyl)-2-morpholin-4-ylpyrido[3,2-d]pyrimidine-6-carboxylic acid]	24
COCCN(C)c1cc(C(=O)O)nc2c(-c3cc(O)cc(F)c3)nc(N3CCOCC3)nc12 [Example 14, 4-(3-Fluoro-5-hydroxy-phenyl)-8-[(2-methoxy-ethyl)-methyl-amino]-2-morpholin-4-yl-pyrido[3,2-d]pyrimidine-6-carboxylic acid]	19
COCCOc1cc(C(=O)O)nc2c(-c3cc(O)cc(F)c3)nc(N3CCOCC3)nc12 [Example 15, 4-(3-Fluoro-5-hydroxy-phenyl)-8-(2-methoxy-ethoxy)-2-morpholin-4-yl-pyrido[3,2-d]pyrimidine-6-carboxylic acid]	93
O=C(O)c1cc(NCCO)c2nc(N3CCOCC3)nc(-c3cc(O)cc(F)c3)c2n1 [Example 16, 4-(3-Fluoro-5-hydroxy-phenyl)-8-(2-hydroxy-ethylamino)-2-morpholin-4-yl-pyrido[3,2-d]pyrimidine-6-carboxylic acid]	64

Structure (SMILES)	IC50 [nM]
CN(C)c1cc(C(=O)O)nc2c(-c3cccc4[nH]ccc34)nc(N3CCOCC3)nc12 [Example 17, 8-Dimethylamino-4-(1H-indol-4-yl)-2-morpholin-4-yl-pyrido[3,2-d]pyrimidine-6-carboxylic acid]	132
CNc1cc(C(=O)O)nc2c(-c3cccc4[nH]ccc34)nc(N3CCOCC3)nc12 [Example 18, 4-(1 H-Indol-4-yl)-8-methylamino-2-morpholin-4-yl-pyrido[3,2-d]pyrimidine-6-carboxylic acid]	780
COCCNc1cc(C(=O)O)nc2c(-c3cccc4[nH]ccc34)nc(N3CCOCC3)nc12 [Example 19, 4-(1H-Indol-4-yl)-8-(2-methoxy-ethylamino)-2-morpholin-4-yl-pyrido[3,2-d]pyrimidine-6-carboxylic acid]	128
CN(CCO)c1cc(C(=O)O)nc2c(-c3cccc4[nH]ccc34)nc(N3CCOCC3)nc12 [Example 20, 8-[(2-Hydroxy-ethyl)-methyl-amino]-4-(1H-indol-4-yl)-2-morpholin-4-yl-pyrido[3,2-d]pyrimidine-6-carboxylic acid]	77
COCCN(C)c1cc(C(=O)O)nc2c(-c3ccc4[nH]ccc4c3)nc(N3CCOCC3)nc12 [Example 21, 4-(1H-Indol-5-yl)-8-[(2-methoxy-ethyl)-methyl-amino]-2-morpholin-4-yl-pyrido[3,2-d]pyrimidine-6-carboxylic acid]	169
COCCN(C)c1cc(C(=O)O)nc2c(-c3ccc(CO)cc3)nc(N3CCOCC3)nc12 [Example 22, 4-(4-Hydroxymethyl-phenyl)-8-[(2-methoxy-ethyl)-methyl-amino]-2-morpholin-4-yl-pyrido[3,2-d]pyrimidine-6-carboxylic acid]	546
CN(C)c1cc(C(=O)O)nc2c(-c3cccc(CO)c3)nc(N3CCOCC3)nc12 [Example 23, 8-Dimethylamino-4-(3-hydroxymethyl-phenyl)-2-morpholin-4-yl-pyrido[3,2-d]pyrimidine-6-carboxylic acid]	34
CN(CCO)c1cc(C(=O)O)nc2c(-c3cccc(CO)c3)nc(N3CCOCC3)nc12 [Example 24, 8-[(2-Hydroxy-ethyl)-methyl-amino]-4-(3-hydroxymethyl-phenyl)-2-morpholin-4-yl-pyrido[3,2-d]pyrimidine-6-carboxylic acid]	74
COCc1cccc(-c2nc(N3CCOCC3)nc3c(N(C)C)cc(C(=O)O)nc23)c1 [Example 25, 8-Dimethylamino-4-(3-methoxymethyl-phenyl)-2-morpholin-4-yl-pyrido[3,2-d]pyrimidine-6-carboxylic acid]	5050
COCCNc1cc(C(=O)O)nc2c(-c3cccc(COC)c3)nc(N3CCOCC3)nc12 [Example 26, 8-(2-Methoxy-ethylamino)-4-(3-methoxymethyl-phenyl)-2-morpholin-4-yl-pyrido[3,2-d]pyrimidine-6-carboxylic acid]	1830
COCc1cccc(-c2nc(N3CCOCC3)nc3c(N(C)CCO)cc(C(=O)O)nc23)c1 [Example 27, 8-[(2-Hydroxy-ethyl)-methyl-amino]-4-(3-methoxymethyl-phenyl)-2-morpholin-4-yl-pyrido[3,2-d]pyrimidine-6-carboxylic acid]	1850
COCc1cccc(-c2nc(N3CCOCC3)nc3c(NCCO)cc(C(=O)O)nc23)c1 [Example 28, 8-(2-Hydroxy-ethylamino)-4-(3-methoxymethyl-phenyl)-2-morpholin-4-yl-pyrido[3,2-d]pyrimidine-6-carboxylic acid]	2490
CN(C)c1cc(C(=O)O)nc2c(-c3cc(F)ccc3O)nc(N3CCOCC3)nc12 [Example 29, 8-(Dimethylamino)-4-(5-fluoro-2-hydroxyphenyl)-2-morpholin-4-ylpyrido[3,2-d]pyrimidine-6-carboxylic acid]	66
CNc1cc(C(=O)O)nc2c(-c3cc(F)ccc3O)nc(N3CCOCC3)nc12 [Example 30, 4-(5-Fluoro-2-hydroxyphenyl)-8-(methylamino)-2-morpholin-4-ylpyrido[3,2-d]pyrimidine-6-carboxylic acid]	304
COCCNc1cc(C(=O)O)nc2c(-c3cc(F)ccc3O)nc(N3CCOCC3)nc12 [Example 31, 4-(5-Fluoro-2-hydroxyphenyl)-8-[(2-methoxyethyl)amino]-2-morpholin-4-ylpyrido[3,2-d]pyrimidine-6-carboxylic acid]	73
